Test results published in patent US6432692B1, “Sensitive bioassay for detecting agonists of the aryl hydrocarbon receptor” (Wisconsin Alumni Research Foundation, priority 1999, dated 2002).

Key:
[1] = tested on: AHR; settings: mouse hepatoma cells overexpressing ARA9; cited from earlier work
[2] = tested on: GR-LexA chimera; assay: GR-LexA chimera β-galactosidase reporter dose-response in yeast strain L40; type: cell-based
Experimental: Pharmacology in yeast: AHR dose-response curves were performed in the S. cerevisiae strain L40 as described previously (Carver et al., 1994, supra). Two days after plasmid transformation, the colonies were replica plated on media with various concentrations of βNF spread on the surface. The replica plates were then incubated for two days at 30° C. For each dose of βNF, three colonies were suspended in 100 μl of Z-buffer (60 mM Na2HPO4, 40 mM NaH2PO4, 10 mM KCl, 1 MM MgSO4, 35 mM 2-mercaptoethanol) and cell density was estimated by reading the A600. Twenty microliters of the remaining cell suspension was added to 130 μl Z-buffer, 25 μl 0.1%SDS (w/v), 25 μl CHCl3 and disrupted at high speed for 10 sec. Thirty microliters of a 4 mg/ml ONPG solution was added and the mixture incubated for 2-5 min at 30° C. The reaction was stopped by adding 75 μl of 1M NaCO3, the cell debris removed by centrifugation and the A420 was determined. Beta-galactosidase units were determined using the following formula (A420/(A600 of 1/10 dilution of cells×volume of culture×time of incubation))×1,000. […]
Next, the specificity of ARA3 for the AHR signaling pathway in yeast was examined. […] In this system, GR is expressed as a LexA fusion protein in which the LexA binding domain replaces the GR DNA binding domain.

[3] = target: T1, LexA-AHR chimera (Mus musculus, UniProt P30561); assay: LexA-AHR chimera / LexA-operator β-galactosidase reporter dose-response in yeast strain L40; type: cell-based
T1 construct: expressed in transfected cells; host or cells: Saccharomyces cerevisiae strain L40; the other entry of the earlier key: lexA (P0A7C2, LexA repressor)
Experimental: Pharmacology in yeast: AHR dose-response curves were performed in the S. cerevisiae strain L40 as described previously (Carver et al., 1994, supra). Two days after plasmid transformation, the colonies were replica plated on media with various concentrations of βNF spread on the surface. The replica plates were then incubated for two days at 30° C. For each dose of βNF, three colonies were suspended in 100 μl of Z-buffer (60 mM Na2HPO4, 40 mM NaH2PO4, 10 mM KCl, 1 MM MgSO4, 35 mM 2-mercaptoethanol) and cell density was estimated by reading the A600. Twenty microliters of the remaining cell suspension was added to 130 μl Z-buffer, 25 μl 0.1%SDS (w/v), 25 μl CHCl3 and disrupted at high speed for 10 sec. Thirty microliters of a 4 mg/ml ONPG solution was added and the mixture incubated for 2-5 min at 30° C. The reaction was stopped by adding 75 μl of 1M NaCO3, the cell debris removed by centrifugation and the A420 was determined. Beta-galactosidase units were determined using the following formula (A420/(A600 of 1/10 dilution of cells×volume of culture×time of incubation))×1,000. To examine expression levels of FKBP52 and ARA9 in yeast, we performed western blot analysis on cell extracts as described previously (Hogenesch et al., J. Biol. Chem. 272: 8581-8593, 1997).
ARA9 enhances ligand responsiveness of AHR: Given the sequence similarities between ARA9 and FKBP52, we asked if either protein could influence AHR signaling in vivo. To this end, we employed a LexA-AHR chimera and a LexA-operator-driven β-galactosidase reporter gene in the yeast S. cerevisiae (Carver et al., 1994, supra). Beta-napthoflavone dose-response curves were constructed for the LexA-AHR in the presence and absence of ARA9 (FIG. 5).
ARA3 was a candidate for a novel regulator of AHR signaling because of its ligand-dependent association with AHR in the two-hybrid screen. The influence of ARA3 on AHR signaling was investigated to determine modifier status. To accomplish this, an ARA3 cDNA (lacking the heterologous TAD from the two-hybrid clone, TAD-NΔ113ARA3) was expressed with LexA-NΔ166AHR in the L40 strain of yeast with increasing concentrations of β-NF.

T1 sequence (P30561 with tags, fused parts or gaps): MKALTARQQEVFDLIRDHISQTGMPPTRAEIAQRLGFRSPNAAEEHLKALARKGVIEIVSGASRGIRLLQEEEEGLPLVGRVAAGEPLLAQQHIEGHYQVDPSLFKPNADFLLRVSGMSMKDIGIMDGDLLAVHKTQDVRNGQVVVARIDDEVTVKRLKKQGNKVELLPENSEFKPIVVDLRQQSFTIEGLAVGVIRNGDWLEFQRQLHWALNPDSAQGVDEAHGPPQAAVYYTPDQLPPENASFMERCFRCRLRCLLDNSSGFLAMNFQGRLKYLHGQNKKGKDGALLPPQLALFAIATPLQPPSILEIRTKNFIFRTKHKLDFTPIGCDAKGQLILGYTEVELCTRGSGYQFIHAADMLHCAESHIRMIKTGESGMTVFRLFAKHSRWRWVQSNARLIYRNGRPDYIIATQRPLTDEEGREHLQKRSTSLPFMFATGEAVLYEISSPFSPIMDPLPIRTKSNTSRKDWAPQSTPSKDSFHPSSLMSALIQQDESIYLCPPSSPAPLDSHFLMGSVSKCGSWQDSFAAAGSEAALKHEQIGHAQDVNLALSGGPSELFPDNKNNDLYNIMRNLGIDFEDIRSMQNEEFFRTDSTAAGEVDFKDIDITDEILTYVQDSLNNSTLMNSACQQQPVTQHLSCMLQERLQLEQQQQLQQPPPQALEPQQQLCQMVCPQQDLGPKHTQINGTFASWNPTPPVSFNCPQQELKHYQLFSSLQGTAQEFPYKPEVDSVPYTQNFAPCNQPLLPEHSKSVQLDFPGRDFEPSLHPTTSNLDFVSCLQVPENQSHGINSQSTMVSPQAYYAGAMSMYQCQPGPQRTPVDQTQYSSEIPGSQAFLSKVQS
T1 sequence (P15108 whole entry partner): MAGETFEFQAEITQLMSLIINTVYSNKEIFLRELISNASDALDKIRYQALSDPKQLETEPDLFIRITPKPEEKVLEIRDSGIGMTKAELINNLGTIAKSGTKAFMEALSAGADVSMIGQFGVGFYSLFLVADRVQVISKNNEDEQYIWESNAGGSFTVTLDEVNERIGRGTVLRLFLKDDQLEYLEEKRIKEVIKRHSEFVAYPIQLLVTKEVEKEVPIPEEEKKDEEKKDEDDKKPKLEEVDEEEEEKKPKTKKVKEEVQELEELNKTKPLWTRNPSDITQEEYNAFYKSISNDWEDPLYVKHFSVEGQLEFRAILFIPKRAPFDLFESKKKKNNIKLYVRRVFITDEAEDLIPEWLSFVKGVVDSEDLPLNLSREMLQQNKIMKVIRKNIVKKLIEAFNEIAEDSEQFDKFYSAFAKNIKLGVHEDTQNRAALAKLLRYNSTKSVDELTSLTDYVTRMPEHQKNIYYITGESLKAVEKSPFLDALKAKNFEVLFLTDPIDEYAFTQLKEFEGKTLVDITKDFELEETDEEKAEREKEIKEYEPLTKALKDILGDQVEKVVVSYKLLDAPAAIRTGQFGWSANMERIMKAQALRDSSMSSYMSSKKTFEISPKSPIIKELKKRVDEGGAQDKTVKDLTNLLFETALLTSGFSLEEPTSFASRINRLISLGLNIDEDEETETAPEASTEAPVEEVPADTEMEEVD

Clc1cc2c(cc1Cl)Oc1cc(Cl)c(Cl)cc1O2 [TCDD, 2,3,7,8-tetrachlorodibenzo-p-dioxin]
increase of response of the system on overexpression of ARA9 [1]: 2-3 fold

C[C@]12CC[C@H]3[C@@H](CCC4=CC(=O)CC[C@@]43C)[C@@H]1CC[C@@H]2C(=O)CO [deoxycorticosterone]
alteration of signaling profile of GR by ARA3 ([2]; co-expression of ARA3 with NlxC-GR): did not alter the signaling profile
alteration of response of GR-LexA chimera by ARA9 or FKBP52 ([2]; co-expression of ARA9 or FKBP52): nor could either factor alter the response

O=c1cc(-c2ccccc2)oc2ccc3ccccc3c12 [βNF, Beta-napthoflavone]
increase of maximal response of AHR by ARA3 ([3]; co-expression of ARA3 (NΔ113ARA3) with LexA-NΔ166AHR): four-fold
increase of maximal response in the presence of ARA9 ([3]; co-expression of ARA9 versus absence): approximately 2.5 fold
decrease of EC50 when ARA9 was present ([3]; co-expression of ARA9 versus absence, β-galactosidase, ONPG assay): approximately 5 fold
shift in AHR dose-response elicited by FKBP52 ([3]; co-expression of FKBP52): could not be elicited
shift of dose-response curve by ARA3 ([3]; co-expression of NΔ113ARA3 with LexA-NΔ166AHR): shifted the curve to the left
